Where a name gives a salt, the structure may show the parent alone. Read-outs that look alike come from different tables or passages of the source. Values belong to the molecule of their own block, whether it stands above or below them.
What was measured:
[1] = general statement; cited from earlier work
[2] = Pig skin (in vitro) transdermal penetration; assay type: in vitro ADME, Yucatan miniature pig
Method: The test procedure is as described for rat skin studies with the exception that excised pig skin samples from Yucatan miniature pigs are utilized.
To address this issue, in vitro skin penetration of tripelennamine (TPL) in 2 saturated aqueous solutions, was measured using pig skin in accordance with the Pig Skin (in vitro) procedure earlier outlined. One solution contained 0.5% IMI. The other solution served as an aqueous control (buffered with NaOH to the same pH as the IMI containing solution).
Since all skin sections are dermatomed to 380 microns, h is a constant. In each composition of Table 5, the vehicle was saturated with the pharmacologic agent. Therefore, the "leaving tendency", or the thermodynamic activity of the pharmacologic agent in the vehicle, remained unchanged (K is the same for both compositions). this means that D must increase in order to explain the 3-fold increase in transdermal penetration. This is indicative of a true enhancement effect of topically applied IMI. The results of Table 5, substantiate that IMI acts as a true skin penetration enhancer. […] This may be one reason why use of a transdermal penetration enhancing amount of a selected imidazole or imidazole derivative of the present invention, in conjunction with a pharmacologically active agent whose transdermal penetration is capable of being enhanced, affords the advantageous enhancement of penetration achieved by the present invention.

[3] = cited from earlier work
[4] = for Increase in penetration relative to control: multiple of average control determination
Method: Polyoxyethylene stearyl ethers, 3 wt. %
Polyoxypropylene fatty alcohol ethers, 3 wt. %
Deionized water, 94 wt. %
Further, in all cases, unless otherwise noted, the tests were carried out at 37° C. and results were compared to penetration data for the same material in the oil/water emulsion base. Moreover, all percentages of composition components recited are, unless otherwise indicated, weight percent (wt. %) and are based upon the total weight of the composition.
The test method is carried out as follows:
A. Prior to testing, rats are routinely acclimated to the laboratory environment for seven days and gross observations are made to ensure good health of the animals to be tested.
B. Female Sprague Dawley rats (190-240 gm) are selected for testing and identified by cage label and ear tag number.
C. Diffusion Cell Preparation.
1. An O-ring is placed on a standard Franz Diffusion Cell. A stir bar is placed in the receptor compartment. Each cell is filled with approximately 4.5 ml sterile physiologic saline (receptor compartments are calibrated to contain 5.0 ml).
2. The jacketed diffusion cells are maintained at 37° C.±1° (or alternatively desired temperature) using an external water bath and a circulating pump.
D. Skin Section Preparation and Mounting
1. Test animals are sacrificed by intraperitoneal injection of 0.4 ml/100 gm. body weight sodium pentobarital (1 gm/ml).
2. The backs are lightly shaved using electric hair clippers.
3. A section of skin, measuring approximately 8 cm long by 7 cm wide, is removed from the back of each rat using a No. 20 scalpel assuring that the skin section is free from subcutaneous fat.
4. A piece of the skin section is mounted over an O-ring on the diffusion cell, epidermal side facing up. The donor compartment is placed on top of the skin section making a complete seal over the skin. A clamp is used to secure the skin section in place.
5. Air bubbles that collect under the skin are removed by inverting the diffusion cell and tapping it gently. The receptor compartment is filled with sterile physiologic saline to 5.0 ml.
E. Application of Test Materials
1. Test and control materials are applied to the skin using s syringe or spatula. The material is spread evenly and completely over the exposed skin surface using the tip of the syringe/spatula.
1. An HPLC carousel is loaded with microvials. Springs and inserts are placed into the microvials.
2. Receptor compartments are sampled at desired time intervals using a microliter (μl) syringe. The sample (approximately 160 μl) is placed into the insert. The microvial is sealed with a plastic cap.
3. When multiple sampling is required, the receptor compartment is replenished with sterile physiologic saline to maintain a 5.0 ml volume.
Samples are analyzed using standard analytical techniques. The presence of test material in the samples is indicative of transdermal penetration.

[5] = Human skin (in vitro) transdermal penetration; assay type: in vitro ADME; conditions: Table 4
From the text: The test procedure is as described for rat skin studies with the exception that normal excised human skin samples obtained from breast reduction surgery are utilized.
As shown by the results of Table 4, imidazole enhanced xylometazoline penetration through human skin 5.3 fold.

[6] = B + 1% drug + 0.5% IMI, Table 3
[7] = B + 5% TPL + 5% XYL, Table 3 Study I
[8] = B + 5% TRP + 5% XYL, Table 3 Study II

Structure (SMILES): Cn1cc[n+](C)c1 [Compound Ia]
- Heat stability [1]: unstable to heat

- Increase in skin permeation of TPL [2]: approximately 3 fold
- 24 hour penetration (total micrograms base) ([2]; aqueous control: saturated TPL/H2O, buffered with NaOH to the same pH, Table 5): 132 micrograms base
- Increase in penetration relative to control ([2]; multiple of average control determinations, saturated TPL/H2O + 0.5% IMI, Table 5): 2.75
- 24 hour penetration (total micrograms base) ([2]; saturated TPL/H2O + 0.5% IMI, Table 5): 363 micrograms base
- 24 hour penetration (total micrograms base) [4]: 196 micrograms base
- Increase in TPL penetration [4]: 270%
- Penetration of TPL enhanced by [4]: 1190%
Structure (SMILES): CN(C)CCN(Cc1ccccc1)c1ccccn1 [TPL, TRIPELENNAMINE HCL, reference compound]
- Skin irritation ([3]; IPM at 0.5%): little or no skin irritation
- Skin irritation ([3]; IPM levels sufficient to enhance transdermal penetration): generally are irritating to skin

Structure (SMILES): Cc1cc(C(C)(C)C)cc(C)c1CC1=NCCN1 [XYL, XYLO[…], HCL, reference compound]
- Imidazole enhanced xylometazoline penetration through human skin ([5]; 2% XYL with 0.5% imidazole): 5.3 fold
- 24 hour penetration (total micrograms base) ([5]; B + 2% XYL + 0.5% IMI): 203 micrograms base
- 24 hour penetration (total micrograms base) ([5]; control: B + 2% XYL): 38 micrograms base
- Increase in penetration relative to control ([5]; multiple of average control determination, B + 2% XYL + 0.5% IMI): 5.3
- Penetration enhanced by imidazole ([4]; 1% drug with 0.5% imidazole, Table 3 Studies V and VI): 610%
- 24 hour penetration (total micrograms base) [4, 6]: 613 micrograms base
- 24 hour penetration (total micrograms base) [4, 7]: 444 micrograms base
- 24 hour penetration (total micrograms base) [4, 8]: 1053 micrograms base
- Penetration of XYL ([4]; combination of TPL and XYL vs XYL alone, Table 3 Study I): remained fairly constant
- Increase in transdermal penetration ([4]; combination of TRP and XYL, Table 3 Study II): 90%
- 24 hour penetration (total micrograms base) ([4]; control: 1% of the drug alone in B, Table 3): 100 micrograms base
- 24 hour penetration (total micrograms base) ([4]; control: 5% of the drug alone in B, Table 3): 544 micrograms base
- Increase in penetration relative to control [4, 6]: 6.1
- Increase in penetration relative to control [4, 7]: 0.8
- Increase in penetration relative to control [4, 8]: 1.9

Structure (SMILES): Cn1ccn(C)c1=O [compound IIa]
- Heat stability [1]: heat stable
